Molecules are shown by their SMILES.

Experimental findings from BindingDB's records for doi:10.3109/14756366.2010.486793 (University of Zimbabwe, 2010) are described below.

The target in the assay is glutathione S-transferase (Plasmodium falciparum). In words: A range of natural products were screened for inhibition of PfGST by GST assay with CDNB as a substrate, using a 96-well SpectraMax 340 microplate spectrophotometer equipped with a kinetics mode (Molecular Devices, California). The final concentration of CDNB was 0.5 mM and of GSH was 1mM. Ethacrynic acid (ETA) and haemin were used as positive controls. The incub.
Take `C=C1C(=O)OC2/C=C(\COC(C)=O)CC/C=C(\CO)CC(OC(C)=O)[C@@H]12` (stereo partly drawn) [JB42C]: the IC50 was 8.5 µM. To `COC(=O)[C@@H]1[C@@H]2C[C@H]3N(C)CC[C@@]34c3ccccc3N(C(C)=O)[C@H]4[C@@H]2CO[C@@H]1C` [Malagashanine] belongs above 100 µM; to `C=Cc1c(OC=O)cc(O)c2c1OC(c1ccc(O)c(O)c1)C(O)C2` (stereo not drawn) [TRAL-1], 12 µM.
